Columns and labels:
Type in all cases: cell-based, Arabidopsis thaliana
[1] = tested on: stomata (guard cells) in whole leaves; assay: Stomatal aperture closure studies, whole leaves in the light; conditions: 10 μM, 2 h
Protocol: (§1) Stomatal Aperture Studies: Arabidopsis thaliana ecotypes Columbia (Col-0) and Wassilewskija (WS) were used as wild types in this study. Col-0, nia1nia2, atrbohD/F, R2-4A and WS plants were all grown on autoclaved Metro-Mix 200 soil at 22° C. under continuous light. The mutant seeds nia1nia2 nia2-5; CS 2356; Col-0 background) were obtained from Dr. N. M. Crawford (University of California at San Diego) and the mutant seeds atrbohD/F (Col-0 background) were obtained from Dr. J. M. Kwak (University of Maryland). The RNAi mutant apyrase line (R2-4A) is in WS background, so WS ecotype was used as the control wild type for these studies. Leaves from 2 to 3 week old Col-0 plants, or R2-4A and WS plants treated with 4 μM estradiol for 1 week after development of mature basal leaves were used for peel and whole leaf studies. Plants were placed in the dark and watered 24 h before an study. For opening studies, plants were used immediately after 24 h dark treatment and all treatments were done in the dark except for the light treated leaves or peels, thus the control stomata are dark controls. For closure studies, plants were placed in the light 3 h before an study to induce stomatal opening and all treatments were done in the light, thus the control stomata are light controls. For peel studies, epidermal peels were made from the underside of the leaf and treatments were applied to the peels for 1 h. For whole leaf studies, leaves were removed and treatments were applied for 2 h. For each treatment, about 3 or 4 peels collected from different leaves or 3 or 4 different leaves of at least two different plants were floated with the abaxial side up in petri dishes on 3 mL of Arabidopsis leaf buffer consisting of 10 mM KCl, 25 mM MES pH 6.15 (Melotto et al., 2006) and the chemical being tested. For whole leaf studies peels were collected after the treatment.
(§2) For studies testing the effects of ATPγS, ADPγS, AMPS, RB2, and PPADS (Sigma, St. Louis, Mo., USA) 20 mM stocks were made by dissolving the compounds in de-ionized water. For studies testing the effects of apyrase inhibitors, 7.5 mg/mL of NGXT191 and of inhibitor #13 (Windsor et al., 2002) was dissolved in dimethyl sulfoxide (DMSO) and then applied at a dilution of […] for a final concentration of 0.1% DMSO. ABA (Sigma, St. Louis, Mo., USA) was dissolved in ethanol in 10 mM stocks and then applied at a dilution of 1:1000. The stocks were stored at −20° C. while not in use. The production of the anti-AtAPY1 antibodies used is described by Steinebrunner et al. (2003). The crude immune and pre-immune sera were purified using protein A-Sepharose following the protocol described by Martin (1982) with the slight modification that the buffers used were azide-free. The protein-A purified sera were both used at a 1:1000 dilution in leaf stomatal aperture studies. The concentration of the immune and pre-immune sera, determined by Bradford assay (Bio-Rad), was 10.2 μg/mL and 7.7 μg/mL, respectively.
(§3) After treatment, photos of stomata were taken using a light microscope at 20×. Stomatal aperture width was measured using the image processing software ImageJ. Typically, photos were taken of 70 to 90 stomata per treatment of which only 50 stomata were measured for each treatment. For each treatment the ratio of closed stomata (width of 0) to open stomata was determined for all stomata imaged and this ratio was maintained in the 50 stomata that were measured for each treatment. Data shown uses apertures determined as width/length, however data in all studies also obtained as width only and generally width/length and width only data are in agreement with each other. Statistical significance of the measurements for the treatments was determined using the Student's t test in Microsoft Excel.

[2] = tested on: stomata of atrbohD/F mutant leaves; assay: Stomatal closing studies with whole leaves of atrbohD/F mutant; conditions: 10 μM
Protocol: Stomatal Aperture Studies: Arabidopsis thaliana ecotypes Columbia (Col-0) and Wassilewskija (WS) were used as wild types in this study. Col-0, nia1nia2, atrbohD/F, R2-4A and WS plants were all grown on autoclaved Metro-Mix 200 soil at 22° C. under continuous light. The mutant seeds nia1nia2 nia2-5; CS 2356; Col-0 background) were obtained from Dr. N. M. Crawford (University of California at San Diego) and the mutant seeds atrbohD/F (Col-0 background) were obtained from Dr. J. M. Kwak (University of Maryland). The RNAi mutant apyrase line (R2-4A) is in WS background, so WS ecotype was used as the control wild type for these studies. […]
as §3, with “Statistical significance of the measurements for the treatments was determined using the Student's t test in Microsoft Excel.” left out

H2O2 in guard cells = assay: Detection and quantification of H2O2 (H2DCFDA fluorescence); conditions: 10 μM, leaf epidermal tissue, after 30 min
Protocol: (§4) Detection and Quantification of H2O2 and NO: Col-0 plants were grown on soil for 2 to 4 weeks under continuous light at 21° C. Plants were placed in the dark for 24 h to ensure closure and then transferred to the light for 1 h. After 1 h in the light, mature basal leaves were excised and blended in a Waring blender on the low setting for approximately 10 s to isolate epidermal tissues, and the tissues were placed in 3 mL of 30 mM KCl, 10 mM Mes-KOH, pH 6.16 buffer in light for 2 h (Pei et al., 2000; Murata et al., 2001). DAF-2 DA and H2DCFDA were dissolved in DMSO to produce 5 mM and 10 mM stock solutions, respectively, and these were stored at −20° C. in 30 μL, aliquots. Fifty μM H2DCFDA or 15 μM DAF-2 DA was added to the medium in the dark, and after 30 min, 10 μM ABA, 200 μM ATPγS, or buffer (ATP control) was also added to the medium in the dark for 30 min. Peels were then rinsed by decanting the treatment solution and adding 3 mL fresh leaf buffer to the peels. Peels were rinsed twice as described. A peel from each of the three treatments (ABA, ATPγS and buffer) were placed on the same microscope slide and observed sequentially. A second study was staggered 30 to 45 min after the first by loading the H2DCFDA or DAF-2 DA dye to new peels 30 to 45 min after the first round of dye was added. Confocal laser scanning microscopy (CLSM) was performed with a Leica SP2 AOBS confocal microscope (Leica Microsystems, Bannockburn, Ill., USA). Laser power was set at 15%, with an excitation of 488 nm and an emission of 525 nm. A series of 0.5 μm optical sections with average intensity projection along the z axis were collected and made into one 2D image with greater focal depth. All images were obtained with the same software scanning settings including detector gain and laser intensity settings.

[3] = tested on: stomata (guard cells) in epidermal peels; assay: Stomatal aperture closure studies, epidermal peels in the light; conditions: 10 μM, epidermal peels, light, 1 h
Protocol: as §1, §2, §3

NO in guard cells = assay: Detection and quantification of NO (DAF-2 DA fluorescence); conditions: 10 μM, leaf epidermal tissue, after 45 min
Protocol: as §4

With `CC1=CC(=O)CC(C)(C)[C@@]1(O)/C=C/C(C)=C\C(=O)O` [ABA, abscisic acid] the “effect on stomatal aperture” value ([1]; both estradiol-treated WS wild-type and R2-4A plants) was “caused closure”, the “effect on stomatal aperture” value ([1]; whole leaves, light) was “induced stomatal closure” and the “effect on stomatal aperture” value [2] was “no effect on stomatal aperture”. The “increase in H2DCFDA fluorescence in guard cells” value (H2O2 in guard cells) was 3 fold, the “effect on stomatal aperture” value [3] was “induced stomatal closure” and the “increase in DAF-2 DA fluorescence in guard cells” value (NO in guard cells) was 2.5 fold.
